US10759757B2, “Crystalline contrast agent for magnetic resonance imaging, kit and composition comprising it and their use” (Southern Medical University, priority 2016, dated 2020)
Read-outs that look alike come from different tables or passages of the source.

What was measured:
[1] = Longitudinal relaxation time (T1) measurement, r1 relaxivity in deionized water; type: physicochemical
Method: IR spectra were recorded on a […] 550 infrared spectrometer. Elemental analyses for C, H, and N were performed on an EA1110 CHNS elemental analyzer. Thermogravimetric analysis (TGA) was performed on an SDTA851 Thermogravimetric Analyzer at a heating rate of 10° C. min^-1 under a nitrogen gas flow in an Al2O3 pan. Powder X-ray diffraction (PXRD) spectra were recorded with a Rigaku D/max-2200/PC. The X-ray generated from a sealed Cu tube was mono-chromated by a graphite crystal and collimated by a 0.5 mm MONOCAP (λ Cu-Kα=1.54178 Å). The tube voltage and current were 40 kV and 40 mA, respectively. […] The measurement of the longitudinal relaxation time T1 was conducted at 30° C. Five samples of compounds 1 and 2 were prepared with the concentrations of 31.25, 62.5, 125, 250, and 500 μM in deionized water, respectively. Before the T1 test, these samples were ultrasonicated for 2 min to dissolve the compounds homogeneously in deionized water. The T1 of deionized water was tested as background. The T1 of the MOF solution was corrected from the background. The measurement time of each sample was ca. 2 min. […] On each image, signal intensities were measured by drawing ROIs in the center of each vial. The T1 relaxation times were performed by fitting the acquired inversion recovery images to a following equation: […]1)), where M and M0 are measured and initial magnetization, respectively. […]

[2] = literature values; cited from earlier work

## O=C([O-])CN(CCN(CC(=O)[O-])CC(=O)O)CCN(CC(=O)[O-])CC(=O)O.[Gd+3] [Gd-DTPA]
[1]; 0.5 T, 30° C., deionized water, 31.25 to 500 μM
  r1 relaxivity: 4.87 mM⁻¹ s⁻¹
[1]; 3T, in water
  relaxivity rates (r1), MRI phantom measurement: 4.98 mM^−1S^−1

## CNC(=O)CN(CCN(CCN(CC(=O)[O-])CC(=O)NC)CC(=O)[O-])CC(=O)[O-].[Gd+3] [OmniScan]
[2]
  r1 relaxivity: 4.1 mM⁻¹ s⁻¹
